“And” between values parts separate entries of the source, which are not always exact repeats. Identical values can stand only once.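 Each compound was tested at five concentrations against cells in 96-well plates for 48 hours. GI50 = concentration required for 50% inhibition of growth. The concentration for full growth arrest is given as TGI.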
Key:
Assay in all cases: inhibition of tumour cell growth, NCI panel, 48 h
CCRF-CEM leukemia = tested on: CCRF-CEM leukemia
DU-145 prostate = tested on: DU-145 prostate
EKVX NSCLC = tested on: EKVX NSCLC
HT29 colon = tested on: HT29 colon
IGROV1 ovarian = tested on: IGROV1 ovarian
KM12 colon = tested on: KM12 colon
MDA-N = tested on: MDA-N
OVCAR-3 ovarian = tested on: OVCAR-3 ovarian
SK-MEL-2 melanoma = tested on: SK-MEL-2 melanoma
SK-MEL-5 melanoma = tested on: SK-MEL-5 melanoma

Row | SMILES | TGI (CCRF-CEM leukemia) | TGI (DU-145 prostate) | TGI (EKVX NSCLC) | TGI (HT29 colon) | TGI (IGROV1 ovarian) | TGI (KM12 colon) [µM] | TGI (MDA-N) | TGI (OVCAR-3 ovarian) | TGI (SK-MEL-2 melanoma) | TGI (SK-MEL-5 melanoma) | GI50 (CCRF-CEM leukemia) [µM] | GI50 (EKVX NSCLC) [µM] | GI50 (HT29 colon) [µM] | GI50 (IGROV1 ovarian) [µM] | GI50 (KM12 colon) [µM] | GI50 (MDA-N) [µM] | GI50 (OVCAR-3 ovarian) [µM] | GI50 (SK-MEL-5 melanoma) [µM]
1 | CCCCCCCCCCCCCCCCCCN(C)CC(COP(=O)([O-])OCC[N+](C)(C)C)OC (configuration not stated) | 24.3 µM | > 100 µM | 48.2 µM | 15 µM | 6.63 µM | 7.71 | > 100 µM | 51.6 µM | 53.7 µM | 43.8 µM |  |  |  |  |  |  |  | 
2 | CCOC(=O)c1ccc(NCC#CCN2CCCCC2)cc1 | > 100 µM | > 100 µM | > 100 µM | > 100 µM | > 100 µM | > 100 | > 100 µM | > 100 µM | > 100 µM | > 100 µM |  |  |  |  |  |  |  | 
3 | C/C(=N\NC(=S)NCCCNC(=S)N/N=C(\C)c1ccccn1)c1ccccn1 | 9.4 µM | 33.9 µM | > 63.9 µM | > 100 µM | 37.4 µM | > 76.1 | > 100 µM | 20.7 µM | > 50.9 µM | > 22 µM |  |  |  |  |  |  |  | 
4 | COc1ccccc1C(=O)c1c(NCc2ccccc2)c(=O)c1=O | > 100 µM | > 100 µM | > 100 µM | > 100 µM | 95 µM | > 100 | > 100 µM | > 100 µM | > 100 µM | > 100 µM |  |  |  |  |  |  |  | 
5 | Cc1nc2c(=O)n(C)ncc2[nH]1 | > 100 µM | > 100 µM | > 100 µM | > 100 µM | > 100 µM | > 100 | > 100 µM | > 100 µM | > 100 µM | > 100 µM |  |  |  |  |  |  |  | 
6 | CC(C)(C)c1cc(O)ccc1O | 33.2 µM | 23.4 µM | > 100 µM | > 100 µM | > 100 µM | > 100 | > 100 µM | > 70 µM | 3.18 µM | > 100 µM |  |  |  |  |  |  |  | 
7 | CCOC(=O)c1c(N2CCOCC2)[nH]c(=O)c(C(c2ccco2)c2c(O)c(C(=O)OCC)c(N3CCOCC3)[nH]c2=O)c1O | > 100 µM | > 100 µM | > 100 µM | > 100 µM |  | > 100 | > 100 µM | > 100 µM | > 100 µM | > 100 µM |  |  |  |  |  |  |  | 
8 | CC(=O)Nc1ccc(C2SCc3nc4ccccc4n32)cc1 (configuration not stated) | > 100 µM | > 100 µM | > 100 µM | > 100 µM | > 100 µM | > 100 | > 100 µM | > 100 µM | > 100 µM | > 100 µM |  |  |  |  |  |  |  | 
9 | CC(=O)O[C@H]1[C@H](OC(=O)CC(C)(O)CC(=O)O)C[C@]2(C)C3=C(CCC2C1(C)C)[C@]1(C)CC[C@H]([C@H]2CC[C@H](C(C)(C)O)OC2O)[C@@]1(C)[C@@H](O)C3 (some centres not stated) | 49.7 µM | 64.8 µM | 38.9 µM | 30.2 µM | 30.8 µM | 38.6 | 34.3 µM | 30.4 µM | 37.1 µM | 30.9 µM |  |  |  |  |  |  |  | 
10 | CCCCCCCCCCCCC(O)[C@H]1CC[C@H](C(O)CCCCCC(=O)CCCCC2CC(C(C)=O)C(=O)O2)O1 (some centres not stated) | > 45.6 µM | > 100 µM | 54.8 µM | > 53.5 µM | 71.6 µM | 24.3 | 23.2 µM | 19.3 µM | 28.3 µM | 4.97 µM and 20.4 µM | 2.15 | 3.24 | 2.96 | 4.3 | 4.2 | 7.67 | 2.25 | 1.11
11 | COC(=O)C1OC(O[C@H]2CC[C@]3(C)[C@H]4CC=C5[C@@H]6CC(C)(C)CC[C@]6(C(=O)OC6OCC(O)C(O)C6OC6OC(C)C(OC7OCC(O)C(O)C7O)C(O)C6O)CC[C@@]5(C)[C@]4(C)CC[C@H]3C2(C)C)C(O)C(O)C1O (some centres not stated) | 53.5 µM and 47.2 µM | 33.7 µM and 47.8 µM | 33.7 µM and 32 µM | 30.8 µM and 29.5 µM | 75 µM and > 100 µM | 30.3 | 29.3 µM and 33.1 µM | 97.6 µM and > 100 µM | 31.8 µM and 34.7 µM | 31.8 µM and 32.5 µM |  |  |  |  |  |  |  | 
12 | CC(=O)c1cc2ccccc2oc1=O | > 100 µM | > 100 µM | > 100 µM | > 100 µM | > 100 µM | > 100 | > 100 µM | > 100 µM | > 100 µM | > 100 µM |  |  |  |  |  |  |  | 
13 | Nc1onc2c1Cc1c(noc1N)-c1ccccc1-2 | > 100 µM | > 100 µM | 66.1 µM | > 100 µM | > 100 µM | > 100 | > 100 µM | > 100 µM | > 100 µM | > 100 µM |  |  |  |  |  |  |  | 
14 | CC(=O)Nc1c(C)cc2c(nc3n2CCC3O)c1[N+](=O)[O-] (configuration not stated) | > 100 µM | > 100 µM | > 100 µM | > 100 µM | > 100 µM | > 100 | > 100 µM | > 100 µM | > 100 µM | > 100 µM |  |  |  |  |  |  |  | 
15 | N[C@H]1CCCC[C@@H]1N1C(=O)c2ccccc2C1(O)c1ccc(Cl)cc1 (some centres not stated) | 16.7 µM | 25.9 µM | 30.1 µM | 15.6 µM | 25.7 µM | 9.75 | 25 µM | 21.5 µM | 30.6 µM | 22.5 µM |  |  |  |  |  |  |  | 
16 | CO/N=C(\C)c1cccc(Nc2c3ccccc3nc3occc23)c1 | > 100 µM | 44.4 µM | 37.2 µM | 16.7 µM | 19.4 µM | 39.5 | 15.8 µM | 19 µM | 15.5 µM | 19.1 µM |  |  |  |  |  |  |  | 
17 | Cc1cc(=O)oc2c(CNC(Cc3ccccc3)C(=O)O)c(O)ccc12 (configuration not stated) | > 100 µM | > 100 µM | > 100 µM | > 100 µM | > 100 µM | > 100 | > 100 µM | > 100 µM | > 100 µM | > 100 µM |  |  |  |  |  |  |  | 
18 | Cc1ccc(NC(=O)c2cc(S(=O)(=O)Nc3nc4ncccc4[nH]3)c(SSc3cc(Cl)c(C(=O)Nc4ccc(C)cc4)cc3S(=O)(=O)Nc3nc4ncccc4[nH]3)cc2Cl)cc1 | > 100 µM | > 100 µM | > 100 µM | > 100 µM | > 100 µM | > 100 | > 100 µM | > 100 µM | > 100 µM | > 100 µM |  |  |  |  |  |  |  | 
19 | CCC(=O)Nc1ccc(N2C(=O)C(Cl)C2c2ccc(SC)cc2)cc1 (configuration not stated) | > 100 µM | > 100 µM | > 100 µM | > 100 µM | > 100 µM | > 100 | > 100 µM | > 100 µM | > 100 µM | 79.8 µM |  |  |  |  |  |  |  | 
20 | NC(N)=Nc1ccc(CC(N)C(=O)O)cc1 (configuration not stated) | > 12.5 µM | > 12.5 µM | > 12.5 µM | > 12.5 µM | > 12.5 µM | > 12.5 | > 12.5 µM | > 12.5 µM | > 12.5 µM | > 12.5 µM |  |  |  |  |  |  |  | 
21 | CC(C)/C(Cl)=N\OC(=O)Nc1cccc(Cl)c1 | 5.05 µM | 51.2 µM | 31.7 µM | 35.1 µM | 35 µM | 31.6 | 28.6 µM | 10.8 µM | 30 µM | 26.6 µM |  |  |  |  |  |  |  | 
22 | O=[N+]([O-])c1cc(-c2nc(-c3ccccc3)c(-c3ccccc3)[nH]2)c(O)c([N+](=O)[O-])c1 | 72.7 µM | 55.4 µM | 58.9 µM | 35.8 µM | > 100 µM | 65.1 | > 100 µM | > 100 µM | 38.3 µM | 36 µM |  |  |  |  |  |  |  | 
23 | OCCNCNc1nc(NCNCCO)nc(N(CNCCO)CNCCO)n1 | > 69.7 µM | 44.3 µM | 57 µM | 45.8 µM | 49.4 µM | > 59.5 | 38.4 µM | 58.7 µM | 40.9 µM | 28.5 µM |  |  |  |  |  |  |  | 
24 | COC(=O)c1ccccc1C1CN=NC12Cc1cc(C)ccc1C2=O (configuration not stated) | > 100 µM | > 100 µM | > 100 µM | > 100 µM | > 100 µM | > 100 | > 100 µM | > 100 µM | > 100 µM | > 100 µM |  |  |  |  |  |  |  | 
25 | COc1cc(Cc2nccc3cc(OC)c(OC)cc23)c(N=NN(C)C)cc1OC | 9.33 µM | 35.7 µM | 42.4 µM | 25 µM | 39.2 µM | 40.2 | 46.1 µM | 73.9 µM | 70.2 µM | 26.4 µM |  |  |  |  |  |  |  | 
26 | COC(=O)C(CCSC)NC(=O)Cc1ccc(C(=O)c2ccccc2)cc1 (configuration not stated) | > 100 µM | > 100 µM | > 100 µM | 65.5 µM | > 100 µM | > 100 | 35.1 µM | > 100 µM | > 100 µM | > 100 µM |  |  |  |  |  |  |  | 
27 | CCCCn1c2c(n(CCCC)c1=S)-c1c(n(CCCC)c(=S)n1CCCC)SSc1c(n(CCCC)c(=S)n1CCCC)-c1c(n(CCCC)c(=S)n1CCCC)SSc1c(n(CCCC)c(=S)n1CCCC)-c1c(n(CCCC)c(=S)n1CCCC)SS2 | > 14.7 µM | > 50 µM | > 50 µM | > 46.6 µM | 8.64 µM | > 50 | > 46 µM | 14.6 µM | 29.3 µM | > 36.6 µM |  |  |  |  |  |  |  | 
28 | Cc1ccnc(NC(NC(=O)c2ccccc2)(C(F)(F)F)C(F)(F)F)c1 | > 100 µM | > 100 µM | > 100 µM | > 100 µM | > 100 µM | > 100 | > 100 µM | > 100 µM | > 100 µM | > 100 µM |  |  |  |  |  |  |  | 
29 | C=C(Br)CNC(=O)CCC(=O)NCC(=C)Br | > 100 µM | > 100 µM | > 100 µM | > 100 µM | > 100 µM | > 100 | > 100 µM | > 100 µM | > 100 µM | > 100 µM |  |  |  |  |  |  |  | 

Source: PubChem BioAssay (NCI)
